These results are taken from patent publication US12247015B2, “3-amino-4H-benzo[e][1,2,4]thiadiazine 1,1-dioxide derivatives as inhibitors of MRGX2” (Solent Therapeutics, LLC, priority 2019, dated 2025).

Chain of hMRGX2 (CHO-K1 cells overexpressing MRGX2) (Q96LB1 whole entry): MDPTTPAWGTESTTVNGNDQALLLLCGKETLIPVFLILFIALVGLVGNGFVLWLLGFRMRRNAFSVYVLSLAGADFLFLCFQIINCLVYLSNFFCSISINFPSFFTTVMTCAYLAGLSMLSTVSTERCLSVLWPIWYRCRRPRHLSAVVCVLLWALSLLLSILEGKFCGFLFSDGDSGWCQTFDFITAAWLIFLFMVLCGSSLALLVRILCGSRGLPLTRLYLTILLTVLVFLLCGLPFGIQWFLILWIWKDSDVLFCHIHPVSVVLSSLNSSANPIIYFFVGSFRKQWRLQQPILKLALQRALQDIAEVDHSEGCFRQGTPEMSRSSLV

This test has as its target hMRGX2 (CHO-K1 cells overexpressing MRGX2) (Homo sapiens (Human), UniProt Q96LB1). The test is described as follows: In vitro inhibition (EC50) of intracellular calcium flux, FLIPR Tetra, substance P stimulation. To be noted: stimulated with MRGX2 ligand substance P, FLIPR Calcium 5, read-out: hMRGX2 Cellular Potency (pEC50) (converted). Type of test: cell-based. In outline:
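CHO-K1 cells overexpressing human MRGX2, loaded with Calcium 5 dye for 30 min at 37 °C, then given compound (11-point, top 10 μM).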
On the technique in general: Calcium assays in cells follow changes in intracellular calcium, usually with a dye or a luminescent sensor.
Take `Cc1cc(-c2cccc3c2NC(Nc2ccc(C(C)C)cc2)=NS3(=O)=O)n[nH]1` [Example 98, 3-((4-isopropylphenyl)amino)-5-(5-methyl-1H-pyrazol-3-yl)-4H-benzo[e][1,2,4]thiadiazine 1,1-dioxide]: the EC50 was 289 nM.
The result for `CC(C)c1ccc(NC2=NS(=O)(=O)c3cccc(-c4cnn(C(F)F)c4)c3N2)cc1` [Example 99, 5-(1-(difluoromethyl)-1H-pyrazol-4-yl)-3-((4-isopropylphenyl)amino)-4H-benzo[e][1,2,4]thiadiazine 1,1-dioxide] reads 760 nM; that for `CC(C)c1ccc(NC2=NS(=O)(=O)c3cccc(-n4cccn4)c3N2)cc1` [Example 100, 3-((4-isopropylphenyl)amino)-5-(1H-pyrazol-1-yl)-4H-benzo[e][1,2,4]thiadiazine 1,1-dioxide], 766 nM.
In the case of `CC(C)c1ccc(NC2=NS(=O)(=O)c3cccc(-c4cnn(C5COC5)c4)c3N2)cc1` [Example 101, 3-((4-isopropylphenyl)amino)-5-(1-(oxetan-3-yl)-1H-pyrazol-4-yl)-4H-benzo[e][1,2,4]thiadiazine 1,1-dioxide], the EC50 is 45.7 nM.
Consider `CC(C)c1ccc(NC2=NS(=O)(=O)c3cccc(-c4cnn(C5CC(F)(F)C5)c4)c3N2)cc1` [Example 104, 5-(1-(3,3-difluorocyclobutyl)-1H-pyrazol-4-yl)-3-((4-isopropylphenyl)amino)-4H-benzo[e][1,2,4]thiadiazine 1,1-dioxide], for which the EC50 is 89.1 nM.
Turning to `Cc1n[nH]cc1-c1cccc2c1NC(Nc1ccc(C(C)C)cc1)=NS2(=O)=O` [Example 106, 3-((4-isopropylphenyl)amino)-5-(3-methyl-1H-pyrazol-4-yl)-4H-benzo[e][1,2,4]thiadiazine 1,1-dioxide], the EC50 is 70.1 nM.
Turning to `CC(C)c1ccc(NC2=NS(=O)(=O)c3cccc(-c4ccn(C)n4)c3N2)cc1` [Example 108, 3-((4-isopropylphenyl)amino)-5-(1-methyl-1H-pyrazol-3-yl)-4H-benzo[e][1,2,4]thiadiazine 1,1-dioxide], the EC50 was 592 nM.
The result for `CC(C)c1ccc(NC2=NS(=O)(=O)c3cccc(C(C)C)c3N2)cc1` [Example 110, 5-isopropyl-3-((4-isopropylphenyl)amino)-4H-benzo[e][1,2,4]thiadiazine 1,1-dioxide] reads 35.2 nM; that for `CC(C)c1ccc(NC2=NS(=O)(=O)c3cccc(C4CCC4)c3N2)cc1` [Example 111, 5-cyclobutyl-3-((4-isopropylphenyl)amino)-4H-benzo[e][1,2,4]thiadiazine 1,1-dioxide], 106 nM.
In the case of `CC(C)c1ccc(NC2=NS(=O)(=O)c3cccc(-c4ccccc4Cl)c3N2)cc1` [Example 112, 5-(2-chlorophenyl)-3-((4-isopropylphenyl)amino)-4H-benzo[e][1,2,4]thiadiazine 1,1-dioxide] it was 165 nM; in that of `Cc1cnccc1-c1cccc2c1NC(Nc1ccc(C(C)C)cc1)=NS2(=O)=O` [Example 113, 3-((4-isopropylphenyl)amino)-5-(3-methylpyridin-4-yl)-4H-benzo[e][1,2,4]thiadiazine 1,1-dioxide], 233 nM.
In the case of `Cc1nn(C)cc1-c1cccc2c1NC(Nc1cccc(C(C)C)c1)=NS2(=O)=O` [Example 115, 5-(1,3-dimethyl-1H-pyrazol-4-yl)-3-((3-isopropylphenyl)amino)-4H-benzo[e][1,2,4]thiadiazine 1,1-dioxide] it was 54.8 nM.
For `CC(C)c1ccc(NC2=NS(=O)(=O)c3cccc(-c4ccccc4Cl)c3N2)cn1` [Example 117, 5-(2-chlorophenyl)-3-((6-isopropylpyridin-3-yl)amino)-4H-benzo[e][1,2,4]thiadiazine 1,1-dioxide], the EC50 was 197 nM.
In the case of `CC(C)c1ccc(NC2=NS(=O)(=O)c3cccc(C4CC4)c3N2)cn1` [Example 118, 5-cyclopropyl-3-((6-isopropylpyridin-3-yl)amino)-4H-benzo[e][1,2,4]thiadiazine 1,1-dioxide] it was 378 nM; in that of `O=S1(=O)N=C(NCc2ncccc2F)Nc2c(C3CC3)cccc21` [Example 119, 5-cyclopropyl-3-(((3-fluoropyridin-2-yl)methyl)amino)-4H-benzo[e][1,2,4]thiadiazine 1,1-dioxide], 484 nM.
In the case of `COc1cccc(CNC2=NS(=O)(=O)c3cccc(C4CC4)c3N2)n1` [Example 120, 5-cyclopropyl-3-(((6-methoxypyridin-2-yl)methyl)amino)-4H-benzo[e][1,2,4]thiadiazine 1,1-dioxide] it was 578 nM; in that of `O=S1(=O)N=C(Nc2ccccc2)Nc2c(C3CC3)cccc21` [Example 121, 5-cyclopropyl-3-(phenylamino)-4H-benzo[e][1,2,4]thiadiazine 1,1-dioxide], 431 nM.
Consider `COc1cccnc1CNC1=NS(=O)(=O)c2cccc(-c3cccc(F)c3Cl)c2N1` [Example 122, 5-(2-chloro-3-fluorophenyl)-3-(((3-methoxypyridin-2-yl)methyl)amino)-4H-benzo[e][1,2,4]thiadiazine 1,1-dioxide], for which the EC50 is 30.3 nM.
In the case of `O=S1(=O)N=C(NCC2CCCO2)Nc2c(-c3cccc(F)c3Cl)cccc21` (centres unmarked) [Example 123, 5-(2-chloro-3-fluorophenyl)-3-(((tetrahydrofuran-2-yl)methyl)amino)-4H-benzo[e][1,2,4]thiadiazine 1,1-dioxide] it was 60.8 nM; in that of `COCCNC1=NS(=O)(=O)c2cccc(-c3ccccc3C(F)(F)F)c2N1` [Example 124, 3-((2-methoxyethyl)amino)-5-(2-(trifluoromethyl)phenyl)-4H-benzo[e][1,2,4]thiadiazine 1,1-dioxide], 64.4 nM.
In the case of `N#Cc1c(F)cccc1-c1cccc2c1NC(NCc1nccs1)=NS2(=O)=O` [Example 126, 2-(1,1-dioxido-3-((thiazol-2-ylmethyl)amino)-4H-benzo[e][1,2,4]thiadiazin-5-yl)-6-fluorobenzonitrile] it was 70 nM.
The result for `COC(C)CNC1=NS(=O)(=O)c2cccc(-c3cc(F)cc(F)c3F)c2N1` (centres unmarked) [Example 127, 3-((2-methoxypropyl)amino)-5-(2,3,5-trifluorophenyl)-4H-benzo[e][1,2,4]thiadiazine 1,1-dioxide] reads 87.1 nM; that for `O=S1(=O)N=C(NCC2CCC2)Nc2c(-c3cc(F)cc(F)c3F)cccc21` [Example 130, 3-((cyclobutylmethyl)amino)-5-(2,3,5-trifluorophenyl)-4H-benzo[e][1,2,4]thiadiazine 1,1-dioxide], 87.9 nM.
`O=S1(=O)N=C(NCc2ccccn2)Nc2c(-c3cc(F)cc(F)c3F)cccc21` [Example 131, 3-((pyridin-2-ylmethyl)amino)-5-(2,3,5-trifluorophenyl)-4H-benzo[e][1,2,4]thiadiazine 1,1-dioxide]: the EC50 is 88.5 nM.
The result for `COCCNC1=NS(=O)(=O)c2cccc(-c3cccc(C(F)(F)F)c3Cl)c2N1` [Example 132, 5-(2-chloro-3-(trifluoromethyl)phenyl)-3-((2-methoxyethyl)amino)-4H-benzo[e][1,2,4]thiadiazine 1,1-dioxide] reads 281 nM; that for `COCCNC1=NS(=O)(=O)c2cccc(-c3ccc(F)cc3Cl)c2N1` [Example 133, 5-(2-chloro-4-fluorophenyl)-3-((2-methoxyethyl)amino)-4H-benzo[e][1,2,4]thiadiazine 1,1-dioxide], 296 nM.
